Experimental data published in PMC7531004, “Discovery of gramicidin A analogues with altered activities by multidimensional screening of a one-bead-one-compound library” (Nature Communications, 2020).
Where “and” joins values, the source holds several entries; their conditions need not be identical. Equal entries are not always repeated. Where a SMILES comes first, the peptide text is derived from it. [ ]: non-standard residue; d: D form. The star is where a group is joined. NHCH2CH2OH = OCCN*; For = O=C*

Columns and labels:
[1] = test system: P388 mouse leukemia cell line; conditions: for IC50: 2 h
[2] = Membrane disruption assay of purified peptides (carboxyfluorescein leakage); format: biochemical; set-up: key: % lysis; Triton X-100 = 100%, DMSO = 0%; conditions: three replicate lines
Procedure: Membrane disruption assay of purified peptides. 5(6)-Carboxyfluorescein (CF)-encapsulated large […]
through Nuclepore polycarbonate filters mounted in the mini-extruder apparatus. A solution of egg yolk phosphatidylcholine (EYPC, 22.0 mg, 28.9 µmol) in CHCl3 (225 µL) and egg yolk phosphatidylglycerol (1.2 0 […]
mM HEPES, 100 mM NaCl, 20 mM CF) by sonication. After five -times freeze-thaw cycles, the lipid […]
concentration of the resultant CF -encapsulated LUV suspension was deduced from the phosphatidylcholine concentration determined by using Phospholipid C -Test Wako. The lipid concentration of the LUV […]
as 5-fold serial dilution. The solution of peptide (2.0 µL) and the CF-encapsulated LUV suspension (200 […]
The resultant suspension was incubated at room temperature for 30 min. The fluorescence (Ex. 490 nm/Em. 517 nm) of each well was measured on Gemini EM microplate reader. Triton X-100/H2O (5/95, 3.0 µL), DMSO (2.0 µL), and the LUV suspension were mixed in each plate to determine 100% lysis. […]
was used to determine 0% lysis. The membrane disruption activities of tested peptides ( I) were normalized against 100% lysis by Triton X-100 (Imax) and 0% lysis by DMSO ( I0) according to Supplementary Equation 2 , where Ix is the fluorescence intensity.
The membrane disruption activities of the purified peptides were plotted as means of three replicates (Supplementary Figure 1).

[3] = test system: Streptococcus pyogenes SSI-9; assay: Antibacterial activity assay of bead-derived peptides (three concentrations); format: cell-based; set-up: key: +++: inhibition by the 640-fold diluted peptide solution; ++: inhibition by the 160-fold diluted solution; +: inhibition by the 40-fold diluted solution; -: no inhibition; conditions: S. pyogenes
How it was run: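 Undiluted, 4-fold and 16-fold DMSO-diluted peptide stocks; S. pyogenes SSI-9, 2 × 10^5 CFU, cation-adjusted MHB (50 mg/L Ca2+, 25 mg/L Mg2+) + 5% laked horse blood; 37 °C, 18 h; readout = cell pellet visible or not.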

[4] = test system: P388 mouse leukemia cells; conditions: 92 h
How it was run: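 P388 cells at 1 × 10^4 cells/mL (final) were exposed to library peptides (stocks diluted 250-fold in RPMI1640/10% FBS) for 92 h at 37 °C, 5% CO2. Viable cells were counted by WST-1/1-methoxy PMS (4 h), absorbance 415 nm, and expressed as cell viability (%).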

SMILES: CC(C)C[C@@H](NC(=O)[C@H](C)NC(=O)CNC(=O)[C@@H](NC=O)C(C)C)C(=O)N[C@@H](C)C(=O)N[C@@H](C(=O)N[C@H](C(=O)N[C@@H](C(=O)N[C@@H](Cc1c[nH]c2ccccc12)C(=O)N[C@H](CC(C)C)C(=O)N[C@@H](Cc1c[nH]c2ccccc12)C(=O)N[C@H](CC(C)C)C(=O)N[C@@H](Cc1c[nH]c2ccccc12)C(=O)N[C@@H](C(=O)N[C@@H](Cc1c[nH]c2ccccc12)C(=O)NCCO)C(C)C)[C@H](C)O)C(C)C)C(C)C [B12] (For-VGA[dL]A[dV]V[dT]W[dL]W[dL]W[dV]W-NHCH2CH2OH)
- weaker cytotoxicity than 1 [1]: 70 fold
- Supplementary Figure 1 dose-response value ([2]; concentration 0.000512 nM): 14.3151 and 14.218 and 7.531
- Supplementary Figure 1 dose-response value ([2]; concentration 0.00256 nM): 2.34 and -6.416 and 3.105
- Supplementary Figure 1 dose-response value ([2]; concentration 0.0128 nM): 5.88 and 8.131 and 3.94
- Supplementary Figure 1 dose-response value ([2]; concentration 0.064 nM): 3.705 and 7.973 and 3.229
- Supplementary Figure 1 dose-response value ([2]; concentration 0.32 nM): 3.808 and 6.955 and 6.51
- Supplementary Figure 1 dose-response value ([2]; concentration 1.6 nM): 8.996 and 0.3041 and 5.919
- Supplementary Figure 1 dose-response value ([2]; concentration 8 nM): 7.9647 and 15.5867 and 17.3879
- Supplementary Figure 1 dose-response value ([2]; concentration 40 nM): 5.306 and 8.903 and 13.6255
- Supplementary Figure 1 dose-response value ([2]; concentration 200 nM): 28.0368 and 20.6509 and 3.758
- Supplementary Figure 1 dose-response value ([2]; concentration 1000 nM): 25.4415 and 27.5334 and 28.0661
- Supplementary Figure 1 dose-response value ([2]; concentration 5000 nM): 41.4626 and 58.8643 and 47.4572

SMILES: CC(C)C[C@@H](NC(=O)[C@H](C)NC(=O)CNC(=O)[C@@H](NC=O)C(C)C)C(=O)N[C@@H](C)C(=O)N[C@@H](C(=O)N[C@H](C(=O)N[C@@H](C(=O)N[C@@H](Cc1c[nH]c2ccccc12)C(=O)N[C@H](CC(C)C)C(=O)N[C@@H](Cc1c[nH]c2ccccc12)C(=O)N[C@H](CC(C)C)C(=O)N[C@@H](Cc1c[nH]c2ccccc12)C(=O)N[C@H](CC(C)C)C(=O)N[C@@H](Cc1c[nH]c2ccccc12)C(=O)NCCO)[C@H](C)O)C(C)C)C(C)C [B13] (For-VGA[dL]A[dV]V[dT]W[dL]W[dL]W[dL]W-NHCH2CH2OH)
- IC50 [1]: > 1000 nM
- Supplementary Figure 1 dose-response value ([2]; concentration 0.000512 nM): 12.6222 and 8.681 and 14.1878
- Supplementary Figure 1 dose-response value ([2]; concentration 0.00256 nM): 5.0387 and -8.856 and 0.4118
- Supplementary Figure 1 dose-response value ([2]; concentration 0.0128 nM): 17.1111 and 10.8226 and 6.743
- Supplementary Figure 1 dose-response value ([2]; concentration 0.064 nM): 2.158 and 0.4656 and 8.156
- Supplementary Figure 1 dose-response value ([2]; concentration 0.32 nM): 0.4983 and 9.035 and 4.354
- Supplementary Figure 1 dose-response value ([2]; concentration 1.6 nM): 8.628 and -5.518 and 5.634
- Supplementary Figure 1 dose-response value ([2]; concentration 8 nM): 16.7483 and 16.868 and 17.3839
- Supplementary Figure 1 dose-response value ([2]; concentration 40 nM): 8.5256 and 14.4302 and 19.7817
- Supplementary Figure 1 dose-response value ([2]; concentration 200 nM): 29.195 and 23.7339 and 11.0358
- Supplementary Figure 1 dose-response value ([2]; concentration 1000 nM): 32.784 and 37.4398 and 33.6736
- Supplementary Figure 1 dose-response value ([2]; concentration 5000 nM): 66.9777 and 54.6664 and 50.7322

SMILES: CC(C)C[C@@H](NC(=O)[C@H](C)NC(=O)[C@H](NC(=O)[C@H](C)NC(=O)CNC(=O)[C@@H](NC=O)C(C)C)[C@H](C)O)C(=O)N[C@H](C(=O)N[C@H](CC(C)C)C(=O)N[C@@H](Cc1c[nH]c2ccccc12)C(=O)N[C@@H](C(=O)N[C@@H](Cc1c[nH]c2ccccc12)C(=O)N[C@H](CC(C)C)C(=O)N[C@@H](Cc1c[nH]c2ccccc12)C(=O)N[C@@H](C(=O)N[C@@H](Cc1c[nH]c2ccccc12)C(=O)NCCO)C(C)C)[C@H](C)O)C(C)C [B21] (For-VGA[dT]A[dL]V[dL]W[dT]W[dL]W[dV]W-NHCH2CH2OH)
- IC50 [1]: > 1000 nM
- antibacterial activity in the library screening [3]: Neither of these peptides exhibited growth inhibition activity
- Supplementary Figure 1 dose-response value ([2]; concentration 0.000512 nM): 14.8974 and 5.3396 and 11.8083
- Supplementary Figure 1 dose-response value ([2]; concentration 0.00256 nM): 18.072 and -2.382 and 0.726
- Supplementary Figure 1 dose-response value ([2]; concentration 0.0128 nM): -1.184 and 8.357 and 7.1241
- Supplementary Figure 1 dose-response value ([2]; concentration 0.064 nM): -0.803 and 4.138 and 1.858
- Supplementary Figure 1 dose-response value ([2]; concentration 0.32 nM): 1.612 and 3.04 and 7.439
- Supplementary Figure 1 dose-response value ([2]; concentration 1.6 nM): 5.221 and -3.492 and 12.0075
- Supplementary Figure 1 dose-response value ([2]; concentration 8 nM): 15.0705 and 19.6578 and 20.2333
- Supplementary Figure 1 dose-response value ([2]; concentration 40 nM): 21.4059 and 19.6002 and 32.4332
- Supplementary Figure 1 dose-response value ([2]; concentration 200 nM): 39.5964 and 37.7798 and 25.5852
- Supplementary Figure 1 dose-response value ([2]; concentration 1000 nM): 40.751 and 51.3594 and 47.003
- Supplementary Figure 1 dose-response value ([2]; concentration 5000 nM): 73.5609 and 68.2985 and 59.7258

SMILES: CNC(=O)C[C@@H](NC(=O)[C@@H](NC(=O)[C@@H](CC(C)C)NC(=O)[C@H](C)NC(=O)[C@@H](CC(C)C)NC(=O)[C@H](C)NC(=O)CNC(=O)[C@@H](NC=O)C(C)C)C(C)C)C(=O)N[C@@H](Cc1c[nH]c2ccccc12)C(=O)N[C@H](CC(C)C)C(=O)N[C@@H](Cc1c[nH]c2ccccc12)C(=O)N[C@H](CC(C)C)C(=O)N[C@@H](Cc1c[nH]c2ccccc12)C(=O)N[C@@H](C(=O)N[C@@H](Cc1c[nH]c2ccccc12)C(=O)NCCO)[C@H](C)O [B22] (For-VGA[dL]A[dL]V[dD](NHMe)W[dL]W[dL]W[dT]W-NHCH2CH2OH)
- IC50 [1]: > 1000 nM
- antibacterial activity in the library screening [3]: Neither of these peptides exhibited growth inhibition activity
- Supplementary Figure 1 dose-response value ([2]; concentration 0.000512 nM): 5.233 and 5.708 and 3.745
- Supplementary Figure 1 dose-response value ([2]; concentration 0.00256 nM): 6.399 and 0.9122 and 2
- Supplementary Figure 1 dose-response value ([2]; concentration 0.0128 nM): 2.405 and 9.3526 and 2.534
- Supplementary Figure 1 dose-response value ([2]; concentration 0.064 nM): 4.116 and 2.091 and 9.6371
- Supplementary Figure 1 dose-response value ([2]; concentration 0.32 nM): 3.439 and -1.283 and 7.2259
- Supplementary Figure 1 dose-response value ([2]; concentration 1.6 nM): 12.4052 and 7.371 and 12.8868
- Supplementary Figure 1 dose-response value ([2]; concentration 8 nM): 24.0812 and 19.193 and 19.2236
- Supplementary Figure 1 dose-response value ([2]; concentration 40 nM): 21.9455 and 34.569 and 23.6152
- Supplementary Figure 1 dose-response value ([2]; concentration 200 nM): 30.6863 and 31.8474 and 39.9799
- Supplementary Figure 1 dose-response value ([2]; concentration 1000 nM): 57.1747 and 48.6012 and 49.2408
- Supplementary Figure 1 dose-response value ([2]; concentration 5000 nM): 70.9515 and 65.7371 and 71.376

SMILES: CC(C)C[C@@H](NC(=O)[C@H](C)NC(=O)CNC(=O)[C@@H](NC=O)C(C)C)C(=O)N[C@@H](C)C(=O)N[C@@H](C(=O)N[C@H](C(=O)N[C@@H](C(=O)N[C@@H](Cc1c[nH]c2ccccc12)C(=O)N[C@H](CC(C)C)C(=O)N[C@@H](Cc1c[nH]c2ccccc12)C(=O)N[C@H](CC(C)C)C(=O)N[C@@H](Cc1c[nH]c2ccccc12)C(=O)N[C@H](CC(C)C)C(=O)N[C@@H](Cc1c[nH]c2ccccc12)C(=O)NCCO)C(C)C)C(C)C)C(C)C [compound 1, Gramicidin A] (For-VGA[dL]A[dV]V[dV]W[dL]W[dL]W[dL]W-NHCH2CH2OH)
- IC99.6 value (threshold concentration of one-point cytotoxicity assay) [1]: 30 nM
- P388 cytotoxicity more sensitive than hemolytic activity [1]: 28 fold
- antibacterial activity in the library screening [3]: ++ or +
- antibacterial activity ([3]; bead-derived peptide solution, three concentrations): -
- cell viability/% [4]: 100.0%
- Supplementary Figure 1 dose-response value ([2]; concentration 0.000512 nM): 1.36 and 3.869 and -1.044
- Supplementary Figure 1 dose-response value ([2]; concentration 0.00256 nM): 3.2 and 1.0665 and -1.239
- Supplementary Figure 1 dose-response value ([2]; concentration 0.0128 nM): 3.406 and 6.277 and 1.505
- Supplementary Figure 1 dose-response value ([2]; concentration 0.064 nM): 4.522 and 0.6394 and 10.119
- Supplementary Figure 1 dose-response value ([2]; concentration 0.32 nM): 0.03727 and -1.4564 and 8.0175
- Supplementary Figure 1 dose-response value ([2]; concentration 1.6 nM): 1.309 and 1.672 and 5.415
- Supplementary Figure 1 dose-response value ([2]; concentration 8 nM): 11.9937 and 6.964 and 7.105
- Supplementary Figure 1 dose-response value ([2]; concentration 40 nM): 14.5572 and 22.409 and 17.147
- Supplementary Figure 1 dose-response value ([2]; concentration 200 nM): 26.5638 and 29.1236 and 30.6096
- Supplementary Figure 1 dose-response value ([2]; concentration 1000 nM): 36.4056 and 34.1405 and 30.0737
- Supplementary Figure 1 dose-response value ([2]; concentration 5000 nM): 57.2698 and 45.8291 and 46.6701
